Where two headings read alike, the source gives them in different places.
Key:
Type in all cases: in vivo
[1] = tested on: Erysiphe graminis f. sp. tritici; experiment: Efficacy against Erysiphe graminis f.sp. tritici on wheat (Example B-5), foliar spray, synergy by COLBY
Text: A synergistic effect exists whenever the action of an active ingredient combination is greater than the sum of the actions of the individual components.
The action to be expected E for a given active ingredient combination obeys the so-called COLBY formula and can be calculated as follows (COLBY, S. R. “Calculating synergistic and antagonistic responses of herbicide combination”. Weeds, Vol. 15, pages 20-22; 1967):
According to Colby, the expected (additive) action of active ingredients I+II using p+q ppm of active ingredient is [formula]
If the action actually observed (O) is greater than the expected action (E), then the action of the combination is superadditive, i.e. there is a synergistic effect.
Five to ten wheat seeds c.v. “Arina” are sown in plastic pots of 7 cm diameter and grown for 7 to 12 days at 20° C., 50-70% rH. When the primary leaves have fully expanded, the plants are spray treated with aqueous spray liquors containing the single compounds, or mixtures thereof (hereinafter a.i.). All compounds are used as experimental or commercially available formulations, combinations are applied as tank mixtures. The application comprises foliar spraying to near runoff (three pots per treatment). 24 hours after the application or 24 hours before application, the plants are inoculated in a settling tower with fresh spores of Erysiphe graminis f. sp. tritici. The plants are then incubated in a growth chamber at 20° C., 60% rH. Seven days after the inoculation, the percentage of infection on primary leaves is evaluated. The efficacy of the a.i. is determined by comparing the degree of fungal attack on treated plants with that on untreated, similarly inoculated and incubated check plants. Each a.i. is tested at 4 to 5 concentrations. The synergie factor is calculated according to the COLBY method.

Erysiphe graminis = experiment: Field test on Erysiphe graminis, winter wheat cv. Kanzler (Example B-6); settings: for % infested leaf area after 29 days: winter wheat field trial, untreated control 15
Protocol: A field trial was carried out in Germany with winter wheat, cv.Kanzler. The experiment was arranged with 4 replicates in randomized plots of 12.5 m^2. Cyproconazole was used as a EC240, quinoxyfen as a SC500 and the mixture cyproconazole/quinoxyfen as a SC155 formulation. Cyproconazole was applied at 80 g a.i./ha, quinoxyfen at 75 g a.i./ha and the mixture contained the same amounts of the individual active ingredients. The spray volume of all treatments was 400 l/ha. Disease assessment of Erysiphe graminis was estimated 29 days after application when untrated control plants had 15% infected leaf area. Results are expressed as % activity calculated on the basis of % infected leaf area.

Septoria spp. = experiment: Activity against Septoria, field trial, winter wheat cv. Consort (Example B-8); settings: for % infested leaf after 84 days: winter wheat field trial, untreated control 97
Protocol: A field trial was carried out in Great Britain with winter wheat, cv. Consort. The experiment was arranged with 4 replicates in randomized plots each of 36 m^2. Application was carried out at 5-10% infected leaf area on the lower leaves. Cyproconazole was used as a EC240, quinoxyfen as a SC500 and the mixture cyproconazole/quinoxyfen as a SC155 formulation. Cyproconazole was applied at 80 g a.i./ha, quinoxyfen at 75 g a.i./ha and the mixture contained the same amounts of the individual active ingredients. The spray volume of all treatments was 200 l/ha. Disease assessment of Septoria spp. was estimated 84 days after application when the untrated control plants had approximated 97% infected leaf area. Results are expressed as % activity calculated on the basis of % infected leaf area.

Uncinula necator = experiment: Activity against Uncinula necator on grape plants (Example B-7)
Protocol: The deposit is then allowed to dry. One day later, the treated plants are inoculated by dusting freshly harvested conidia over the test plants; then the plants were incubated in a growt chamber for 10-14 days at +22° C. and 70% r.h. The efficacy of the test compounds is determined by comparing the degree of fungal attack with that on untreated, similarly inoculated check plants. I

[2] = curative application, single a.i. 0.1 mg a.i./l
[3] = protective application, single a.i. 0.1 mg a.i./l
[4] = protective application, single a.i. 0.25 mg a.i./l
[5] = Blumeria graminis, foliar, curative application, single a.i. 0.05 mg a.i./l, read-out: % activity observed

## CC(C1CC1)C(O)(Cn1cncn1)c1ccc(Cl)cc1 (stereo not shown) [Cyproconazole]
[1]; curative application, single a.i. 0.05 mg a.i./l
  % activity observed: 7%
[1]; [2]
  % activity observed: 8%
[1]; curative application, single a.i. 0.25 mg a.i./l
  % activity observed: 16%
[1]; curative application, single a.i. 0.5 mg a.i./l
  % activity observed: 24%
[1]; protective application, single a.i. 0.05 mg a.i./l
  % activity observed: 1%
[1]; [3]
  % activity observed: 2%
[1]; [4]
  % activity observed: 4%
[1]; protective application, single a.i. 0.5 mg a.i./l
  % activity observed: 12%
Erysiphe graminis; SL100, 80 g a.i./ha, 29 days after application
  % activity observed: 60%
Erysiphe graminis; SL100, 80 g a.i./ha
  % infested leaf area after 29 days: 6%
Septoria spp.; EC240, 80 g a.i./ha, 84 days after application
  % activity observed: 42%
Septoria spp.; EC240, 80 g a.i./ha
  % infested leaf after 84 days: 56%

## Cc1cc(C2CC2)nc(Nc2ccccc2)n1 [Cyprodinil]
[1]; curative application, single a.i. 25 mg a.i./l
  % activity observed: 25%

## CC(Cc1ccc(C(C)(C)C)cc1)CN1CCCCC1 (stereo not shown) [Fenpropidin]
[1]; [5]
  inhibition at 0.05 µg/mL: 0%
[1]; Blumeria graminis, foliar, protective application, single a.i. 0.5 mg a.i./l, read-out: % activity observed
  inhibition at 0.5 µg/mL: 2%

## CCCC(Cn1cncn1)c1ccc(Cl)cc1Cl (stereo not shown) [Penconazole]
Uncinula necator; single a.i. 0.1 mg a.i./l
  % activity observed: 7%
Uncinula necator; single a.i. 1 mg a.i./l
  % activity observed: 42%

## CCCC1COC(Cn2cncn2)(c2ccc(Cl)cc2Cl)O1 (stereo not shown) [Propiconazole]
[1]; [2]
  % activity observed: 34%
[1]; [3]
  % activity observed: 1%
[1]; [4]
  % activity observed: 12%

## Fc1ccc(Oc2ccnc3cc(Cl)cc(Cl)c23)cc1 [Quinoxyfen]
[1]; [5]
  inhibition at 0.05 µg/mL: 1%
[1]; Blumeria graminis, foliar, curative application, single a.i. 0.1 mg a.i./l, read-out: % activity observed
  inhibition at 0.1 µg/mL: 3%
[1]; Blumeria graminis, foliar, curative application, single a.i. 0.25 mg a.i./l, read-out: % activity observed
  inhibition at 0.25 µg/mL: 6%
[1]; Blumeria graminis, foliar, curative application, single a.i. 0.5 mg a.i./l, read-out: % activity observed
  inhibition at 0.5 µg/mL: 4%
[1]; Blumeria graminis, foliar, curative application, single a.i. 1 mg a.i./l, read-out: % activity observed
  inhibition at 1 µg/mL: 7%
[1]; Blumeria graminis, foliar, protective application, single a.i. 0.05 mg a.i./l, read-out: % activity observed
  inhibition at 0.05 µg/mL: 0%
[1]; Blumeria graminis, foliar, protective application, single a.i. 0.1 mg a.i./l, read-out: % activity observed
  inhibition at 0.1 µg/mL: 1%
[1]; Blumeria graminis, foliar, protective application, single a.i. 0.25 mg a.i./l, read-out: % activity observed
  inhibition at 0.25 µg/mL: 3%
Erysiphe graminis; Blumeria graminis, 696 h, SC500, 75 g a.i./ha, 29 days after application, read-out: % activity observed
  inhibition at 75 g/ha: 33%
Erysiphe graminis; SC500, 75 g a.i./ha
  % infested leaf area after 29 days: 10%
Uncinula necator; Erysiphe necator, single a.i. 0.1 mg a.i./l, read-out: % activity observed
  inhibition at 0.1 µg/mL: 48%
Uncinula necator; Erysiphe necator, single a.i. 1 mg a.i./l, read-out: % activity observed
  inhibition at 1 µg/mL: 58%
Septoria spp.; 2016 h, SC500, 75 g a.i./ha, 84 days after application, read-out: % activity observed
  inhibition at 75 g/ha: 12%
Septoria spp.; SC500, 75 g a.i./ha
  % infested leaf after 84 days: 85%
